According to ChEMBL document CHEMBL1909046, “DrugMatrix in vitro pharmacology data”:

Tests used:
Cytochrome P450 3A4 = Cytochrome P450 3A4 (Homo sapiens, UniProt P08684); conditions: bti-tn-5b1-4; also: in other assays of this panel Not Active means under 50% inhibition at 10 µM
[1] = biological target: T1, Cysteinyl leukotriene receptor 1 (Homo sapiens, UniProt Q9Y271); assay type: cell membranes, Membrane; conditions: cho-k1; also: in other assays of this panel Not Active means under 50% inhibition at 10 µM
T1 sequence (Q9Y271 whole entry): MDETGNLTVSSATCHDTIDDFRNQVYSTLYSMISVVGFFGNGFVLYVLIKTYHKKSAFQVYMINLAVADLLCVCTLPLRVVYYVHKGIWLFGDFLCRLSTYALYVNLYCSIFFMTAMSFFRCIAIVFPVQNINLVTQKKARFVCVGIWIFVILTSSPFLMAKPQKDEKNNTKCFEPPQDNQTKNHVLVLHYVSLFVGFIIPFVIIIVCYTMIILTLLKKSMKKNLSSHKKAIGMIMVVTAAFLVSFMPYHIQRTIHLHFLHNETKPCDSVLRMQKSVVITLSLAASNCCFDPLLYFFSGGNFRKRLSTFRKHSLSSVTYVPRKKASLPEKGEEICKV

Progesterone receptor = biological target: T2, Progesterone receptor (Bos taurus, UniProt Q690N0); assay: DRUGMATRIX: Progesterone radioligand binding (ligand: [3H] R-5020); assay type: tissue-based, Uterus; conditions: Not Active = under 50% inhibition at 10 µM
T2 sequence (Q690N0 whole entry): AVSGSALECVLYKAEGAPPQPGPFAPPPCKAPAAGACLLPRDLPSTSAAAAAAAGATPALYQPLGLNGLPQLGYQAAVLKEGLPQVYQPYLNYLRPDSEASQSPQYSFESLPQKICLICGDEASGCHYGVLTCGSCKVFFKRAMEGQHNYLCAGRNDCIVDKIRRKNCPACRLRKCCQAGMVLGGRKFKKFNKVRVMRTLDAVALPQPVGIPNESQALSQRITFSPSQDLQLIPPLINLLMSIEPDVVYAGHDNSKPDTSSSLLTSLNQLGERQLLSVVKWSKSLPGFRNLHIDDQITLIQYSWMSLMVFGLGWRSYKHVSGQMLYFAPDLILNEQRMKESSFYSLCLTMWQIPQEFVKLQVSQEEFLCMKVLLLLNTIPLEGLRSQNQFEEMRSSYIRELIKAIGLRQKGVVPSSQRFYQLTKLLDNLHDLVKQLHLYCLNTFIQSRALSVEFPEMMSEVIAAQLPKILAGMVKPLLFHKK

[2] = DRUGMATRIX: Calcium Channel Type L, Phenylalkylamine radioligand binding (ligand: [3H] (-)-Desmethoxyverapamil (D-888)); assay type: cell membranes, Rattus norvegicus, Wistar, Brain, Membrane; conditions: Not Active = under 50% inhibition at 10 µM
Cannabinoid receptor 1 = Cannabinoid receptor 1 (Homo sapiens, UniProt P21554); assay type: cell membranes, Membrane; conditions: chem-1; also: in other assays of this panel Not Active means under 50% inhibition at 10 µM
[3] = biological target: Voltage-gated inwardly rectifying potassium channel KCNH2 (Homo sapiens, UniProt Q12809); conditions: hek293; also: in other assays of this panel Not Active means under 50% inhibition at 10 µM
[4] = DRUGMATRIX: Phosphodiesterase PDE3 enzyme inhibition (substrate: [3H]cAMP + cAMP); assay type: tissue-based, Homo sapiens; conditions: platelet; Not Active = under 50% inhibition at 10 µM
[5] = biological target: Vascular endothelial growth factor receptor 1 (Homo sapiens, UniProt P17948); assay: biochemical; assay type: cell-based, HUVEC; conditions: huvec; also: in other assays of this panel Not Active means under 50% inhibition at 10 µM
Sequence of Vascular endothelial growth factor receptor 1 (P17948 whole entry): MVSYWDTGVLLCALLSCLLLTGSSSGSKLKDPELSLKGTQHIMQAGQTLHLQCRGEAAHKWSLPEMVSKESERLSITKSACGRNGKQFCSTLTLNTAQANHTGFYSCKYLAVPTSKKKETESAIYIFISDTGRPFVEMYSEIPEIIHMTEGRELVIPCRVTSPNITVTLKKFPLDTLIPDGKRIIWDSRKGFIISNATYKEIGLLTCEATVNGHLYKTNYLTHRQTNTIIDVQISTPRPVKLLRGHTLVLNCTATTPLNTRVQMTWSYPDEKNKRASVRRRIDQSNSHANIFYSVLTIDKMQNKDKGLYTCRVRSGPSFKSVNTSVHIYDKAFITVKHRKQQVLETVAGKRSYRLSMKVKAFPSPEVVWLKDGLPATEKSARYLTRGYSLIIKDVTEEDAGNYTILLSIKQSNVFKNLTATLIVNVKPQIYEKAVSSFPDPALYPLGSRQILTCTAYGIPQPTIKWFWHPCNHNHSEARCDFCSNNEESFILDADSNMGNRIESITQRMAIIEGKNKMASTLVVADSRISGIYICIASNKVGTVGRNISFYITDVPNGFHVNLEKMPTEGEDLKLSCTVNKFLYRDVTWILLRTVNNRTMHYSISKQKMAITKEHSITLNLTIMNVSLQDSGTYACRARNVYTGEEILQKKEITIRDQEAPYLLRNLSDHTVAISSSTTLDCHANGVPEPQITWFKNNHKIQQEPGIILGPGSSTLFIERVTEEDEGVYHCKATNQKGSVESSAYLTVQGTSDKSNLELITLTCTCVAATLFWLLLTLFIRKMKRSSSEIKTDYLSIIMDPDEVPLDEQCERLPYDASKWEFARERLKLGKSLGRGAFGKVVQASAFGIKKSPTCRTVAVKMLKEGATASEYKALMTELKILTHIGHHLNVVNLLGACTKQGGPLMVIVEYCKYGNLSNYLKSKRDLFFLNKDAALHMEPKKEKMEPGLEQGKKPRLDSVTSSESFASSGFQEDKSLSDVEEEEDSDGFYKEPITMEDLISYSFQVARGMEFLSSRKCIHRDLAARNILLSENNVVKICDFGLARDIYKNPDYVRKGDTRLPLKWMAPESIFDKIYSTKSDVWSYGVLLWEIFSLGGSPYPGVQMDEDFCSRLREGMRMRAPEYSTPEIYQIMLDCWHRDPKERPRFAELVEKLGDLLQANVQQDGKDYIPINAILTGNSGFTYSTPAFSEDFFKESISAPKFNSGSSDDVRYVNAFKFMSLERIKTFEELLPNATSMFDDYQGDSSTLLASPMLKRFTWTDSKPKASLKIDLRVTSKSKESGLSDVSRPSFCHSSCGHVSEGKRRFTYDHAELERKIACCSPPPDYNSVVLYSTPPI

Sequence of Cytochrome P450 3A4 (P08684 whole entry): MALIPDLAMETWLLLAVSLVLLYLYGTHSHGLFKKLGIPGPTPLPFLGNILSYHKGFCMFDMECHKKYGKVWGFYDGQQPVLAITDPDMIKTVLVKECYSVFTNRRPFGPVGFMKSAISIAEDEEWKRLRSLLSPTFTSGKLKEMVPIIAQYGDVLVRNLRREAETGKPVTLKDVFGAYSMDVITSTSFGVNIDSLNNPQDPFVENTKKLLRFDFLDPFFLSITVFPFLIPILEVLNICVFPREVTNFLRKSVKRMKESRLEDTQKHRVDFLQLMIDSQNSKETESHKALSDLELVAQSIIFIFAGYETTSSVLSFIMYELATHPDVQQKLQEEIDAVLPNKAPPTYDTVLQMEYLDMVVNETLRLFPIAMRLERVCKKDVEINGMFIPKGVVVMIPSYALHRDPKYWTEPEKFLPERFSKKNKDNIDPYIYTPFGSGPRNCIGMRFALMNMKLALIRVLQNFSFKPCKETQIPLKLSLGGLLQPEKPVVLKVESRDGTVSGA
Sequence of Cannabinoid receptor 1 (P21554 whole entry): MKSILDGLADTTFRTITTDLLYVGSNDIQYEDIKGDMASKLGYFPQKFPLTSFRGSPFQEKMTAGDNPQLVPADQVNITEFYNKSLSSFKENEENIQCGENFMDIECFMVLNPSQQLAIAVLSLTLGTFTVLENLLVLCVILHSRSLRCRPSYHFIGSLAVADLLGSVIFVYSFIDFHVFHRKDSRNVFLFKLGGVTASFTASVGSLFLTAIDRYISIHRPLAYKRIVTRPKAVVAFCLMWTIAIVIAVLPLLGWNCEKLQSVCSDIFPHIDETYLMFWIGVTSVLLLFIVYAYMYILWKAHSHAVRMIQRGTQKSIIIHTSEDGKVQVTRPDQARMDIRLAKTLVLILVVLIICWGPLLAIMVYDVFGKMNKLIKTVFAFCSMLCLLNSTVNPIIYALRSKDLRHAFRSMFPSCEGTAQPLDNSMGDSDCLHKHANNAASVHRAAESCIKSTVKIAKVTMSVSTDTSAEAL
Sequence of Voltage-gated inwardly rectifying potassium channel KCNH2 (Q12809 whole entry): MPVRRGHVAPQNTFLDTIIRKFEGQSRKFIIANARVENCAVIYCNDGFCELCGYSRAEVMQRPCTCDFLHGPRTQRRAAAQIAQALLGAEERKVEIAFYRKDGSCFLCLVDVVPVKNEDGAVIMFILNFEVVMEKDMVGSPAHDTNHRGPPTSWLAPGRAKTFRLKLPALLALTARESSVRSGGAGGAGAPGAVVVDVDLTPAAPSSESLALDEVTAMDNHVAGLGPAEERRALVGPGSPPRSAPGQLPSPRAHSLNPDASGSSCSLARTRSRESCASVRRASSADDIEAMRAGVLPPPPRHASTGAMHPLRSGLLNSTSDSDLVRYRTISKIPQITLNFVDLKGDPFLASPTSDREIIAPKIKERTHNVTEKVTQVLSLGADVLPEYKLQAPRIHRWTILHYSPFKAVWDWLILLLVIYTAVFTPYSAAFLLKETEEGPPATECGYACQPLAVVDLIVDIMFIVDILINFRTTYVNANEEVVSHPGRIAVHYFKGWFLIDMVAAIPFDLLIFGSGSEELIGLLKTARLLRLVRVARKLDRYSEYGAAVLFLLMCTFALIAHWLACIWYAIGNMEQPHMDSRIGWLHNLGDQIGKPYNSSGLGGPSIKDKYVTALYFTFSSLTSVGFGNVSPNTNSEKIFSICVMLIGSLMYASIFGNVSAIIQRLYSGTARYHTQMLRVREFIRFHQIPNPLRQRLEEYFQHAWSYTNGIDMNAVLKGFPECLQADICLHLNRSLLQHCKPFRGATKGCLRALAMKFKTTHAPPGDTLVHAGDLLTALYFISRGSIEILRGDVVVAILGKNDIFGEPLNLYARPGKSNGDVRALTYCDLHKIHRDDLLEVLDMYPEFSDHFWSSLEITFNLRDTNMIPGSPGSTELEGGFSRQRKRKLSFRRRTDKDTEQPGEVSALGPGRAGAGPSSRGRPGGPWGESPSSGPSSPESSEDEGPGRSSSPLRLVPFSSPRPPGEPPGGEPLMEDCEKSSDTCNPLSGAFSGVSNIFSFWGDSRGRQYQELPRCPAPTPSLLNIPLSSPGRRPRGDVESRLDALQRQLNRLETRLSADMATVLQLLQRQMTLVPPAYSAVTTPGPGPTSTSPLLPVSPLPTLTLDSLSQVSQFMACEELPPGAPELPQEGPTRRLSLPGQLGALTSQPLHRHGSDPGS

Cc1cn([C@H]2C[C@H](N=[N+]=[N-])[C@@H](CO)O2)c(=O)[nH]c1=O [ZIDOVUDINE]
Not Active: IC50 (Cytochrome P450 3A4) | Ki (Cytochrome P450 3A4) | IC50 [1] | IC50 (Progesterone receptor) | IC50 [2] | Ki [2] | IC50 (Cannabinoid receptor 1) | IC50 [3] | Ki [3] | IC50 [4] | Ki [4] | IC50 [5]

STANNOUS FLUORIDE
Not Active: IC50 (Cytochrome P450 3A4) | Ki (Cytochrome P450 3A4) | IC50 [1] | Ki [1] | IC50 (Progesterone receptor) | Ki (Progesterone receptor) | IC50 [2] | Ki [2] | IC50 (Cannabinoid receptor 1) | Ki (Cannabinoid receptor 1) | IC50 [3] | Ki [3] | IC50 [4] | Ki [4] | IC50 [5] | Ki [5]

THIMEROSAL
Not Active: IC50 (Cytochrome P450 3A4) | Ki (Cytochrome P450 3A4) | IC50 [1] | Ki [1] | IC50 (Progesterone receptor) | Ki (Progesterone receptor) | IC50 [2] | Ki [2] | IC50 (Cannabinoid receptor 1) | Ki (Cannabinoid receptor 1) | IC50 [3] | Ki [3] | IC50 [4] | Ki [4] | IC50 [5] | Ki [5]
